# Molecular target: Menin-MLL (Homo sapiens (Human), UniProt O00255)
# Experiment: Determination of binding constants (Ki) to Menin-MLL (HTRF)
# Conditions: HTRF; 0.25 nM H-FL-Menin, 3.2 nM FITC-MLL-4-43, 24 hr incubation; read-out: Menin-MLL Ki HTRF Assay: Ki
# Menin-MLL, sequence (O00255 whole entry): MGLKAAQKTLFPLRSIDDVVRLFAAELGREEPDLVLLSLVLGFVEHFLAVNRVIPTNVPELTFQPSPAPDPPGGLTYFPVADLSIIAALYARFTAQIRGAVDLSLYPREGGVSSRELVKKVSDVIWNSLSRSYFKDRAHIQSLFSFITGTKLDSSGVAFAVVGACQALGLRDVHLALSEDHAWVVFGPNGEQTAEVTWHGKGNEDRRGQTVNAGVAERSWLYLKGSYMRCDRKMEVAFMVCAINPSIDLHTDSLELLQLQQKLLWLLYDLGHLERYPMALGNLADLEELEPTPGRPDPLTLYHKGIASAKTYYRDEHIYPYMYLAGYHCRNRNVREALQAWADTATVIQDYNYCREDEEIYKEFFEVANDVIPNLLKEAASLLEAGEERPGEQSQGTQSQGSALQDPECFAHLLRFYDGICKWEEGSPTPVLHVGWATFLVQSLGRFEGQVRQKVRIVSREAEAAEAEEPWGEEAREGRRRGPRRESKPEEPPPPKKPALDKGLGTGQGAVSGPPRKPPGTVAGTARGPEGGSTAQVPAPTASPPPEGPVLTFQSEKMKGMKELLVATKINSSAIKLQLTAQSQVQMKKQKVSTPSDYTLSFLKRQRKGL
row,Structure (SMILES),Ki [nM]
1,"CC(C)N(C(=O)c1cc(F)ccc1Oc1cncnc1N1CC2(CCN(C[C@@H]3CC[C@@H](NS(=O)(=O)N4CCC4)CO3)CC2)C1)[C@@H]1CCOC1 [Compound 168, 2-((4-(7-(((2S,5R)-5-(Azetidine-1-sulfonamido)tetrahydro-2H-pyran-2-yl)methyl)-2,7-diazaspiro[3.5]nonan-2-yl)pyrimidin-5-yl)oxy)-5-fluoro-N-isopropyl-N-((R)-tetrahydrofuran-3-yl)benzamide]",< 1
2,"CC(C)N(C(=O)c1cc(F)ccc1Oc1cncnc1N1CC2(CCN(C[C@@H]3CC[C@@H](NS(=O)(=O)N4CCCC4)CO3)CC2)C1)[C@@H]1CCOC1 [Compound 169, 5-Fluoro-N-isopropyl-2-((4-(7-(((2S,5R)-5-(pyrrolidine-1-sulfonamido)tetrahydro-2H-pyran-2-yl)methyl)-2,7-diazaspiro[3.5]nonan-2-yl)pyrimidin-5-yl)oxy)-N-((R)-tetrahydrofuran-3-yl)benzamide]",< 1
3,"CCN(C)S(=O)(=O)N[C@@H]1CC[C@@H](CN2CCC3(CC2)CN(c2ncncc2Oc2ccc(F)cc2C(=O)N(C(C)C)[C@@H]2CCOC2)C3)OC1 [Compound 170, 2-((4-(7-(((2S,5R)-5-((N-Ethyl-N-methylsulfamoyl)amino)tetrahydro-2H-pyran-2-yl)methyl)-2,7-diazaspiro[3.5]nonan-2-yl)pyrimidin-5-yl)oxy)-5-fluoro-N-isopropyl-N-((R)-tetrahydrofuran-3-yl)benzamide]",< 1
4,"CC(C)N(C(=O)c1cc(F)ccc1Oc1cncnc1N1CC2(CCN(C[C@@H]3CC[C@@H](NS(=O)(=O)NCC(F)(F)F)CO3)CC2)C1)[C@@H]1CCOC1 [Compound 171, 5-Fluoro-N-isopropyl-N-((R)-tetrahydrofuran-3-yl)-2-((4-(7-(((2S,5R)-5-((N-(2,2,2-trifluoroethyl)sulfamoyl)amino)tetrahydro-2H-pyran-2-yl)methyl)-2,7-diazaspiro[3.5]nonan-2-yl)pyrimidin-5-yl)oxy)benzamide]",< 1
5,"CCNS(=O)(=O)N[C@@H]1CC[C@@H](CN2CCC3(CC2)CN(c2ncncc2Oc2ccc(F)cc2C(=O)N(C(C)C)[C@@H]2CCOC2)C3)OC1 [Compound 172, 2-((4-(7-(((2S,5R)-5-((N-ethylsulfamoyl)amino)tetrahydro-2H-pyran-2-yl)methyl)-2,7-diazaspiro[3.5]nonan-2-yl)pyrimidin-5-yl)oxy)-5-fluoro-N-isopropyl-N-((R)-tetrahydrofuran-3-yl)benzamide]",< 1
6,"CC(C)N(C(=O)c1cc(F)ccc1Oc1cncnc1N1CC2(CCN(C[C@@H]3CC[C@@H](NS(C)(=O)=O)CO3)CC2)C1)[C@H]1CCOC1 [Compound 173, 5-Fluoro-N-isopropyl-2-((4-(7-(((2S,5R)-5-(methylsulfonamido)tetrahydro-2H-pyran-2-yl)methyl)-2,7-diazaspiro[3.5]nonan-2-yl)pyrimidin-5-yl)oxy)-N-((S)-tetrahydrofuran-3-yl)benzamide]",< 1
7,"CC(C)N(C(=O)c1cc(F)ccc1Oc1cncnc1N1CC2(CCN(C[C@@H]3CC[C@@H](NS(=O)(=O)C(C)C)CO3)CC2)C1)[C@H]1CCOC1 [Compound 174, 5-Fluoro-N-isopropyl-2-((4-(7-(((2S,5R)-5-((1-methylethyl)sulfonamido)tetrahydro-2H-pyran-2-yl)methyl)-2,7-diazaspiro[3.5]nonan-2-yl)pyrimidin-5-yl)oxy)-N-((S)-tetrahydrofuran-3-yl)benzamide]",< 1
8,"CC(C)N(C(=O)c1cc(F)ccc1Oc1cncnc1N1CC2(CCN(C[C@@H]3CC[C@@H](NS(=O)(=O)N4CCCC4)CO3)CC2)C1)[C@H]1CCOC1 [Compound 178, 5-Fluoro-N-isopropyl-2-((4-(7-(((2S,5R)-5-(pyrrolidine-1-sulfonamido)tetrahydro-2H-pyran-2-yl)methyl)-2,7-diazaspiro[3.5]nonan-2-yl)pyrimidin-5-yl)oxy)-N-((S)-tetrahydrofuran-3-yl)benzamide]",< 1
9,"CCN(C)S(=O)(=O)N[C@@H]1CC[C@@H](CN2CCC3(CC2)CN(c2ncncc2Oc2ccc(F)cc2C(=O)N(C(C)C)[C@H]2CCOC2)C3)OC1 [Compound 179, 2-((4-(7-(((2S,5R)-5-((N-Ethyl-N-methylsulfamoyl)amino)tetrahydro-2H-pyran-2-yl)methyl)-2,7-diazaspiro[3.5]nonan-2-yl)pyrimidin-5-yl)oxy)-5-fluoro-N-isopropyl-N-((S)-tetrahydrofuran-3-yl)benzamide]",< 1
10,"CCNS(=O)(=O)N[C@@H]1CC[C@@H](CN2CCC3(CC2)CN(c2ncncc2Oc2ccc(F)cc2C(=O)N(C(C)C)[C@H]2CCOC2)C3)OC1 [Compound 180, 2-((4-(7-(((2S,5R)-5-((N-Ethylsulfamoyl)amino)tetrahydro-2H-pyran-2-yl)methyl)-2,7-diazaspiro[3.5]nonan-2-yl)pyrimidin-5-yl)oxy)-5-fluoro-N-isopropyl-N-((S)-tetrahydrofuran-3-yl)benzamide]",< 1
11,"CC(C)N(CCC#N)C(=O)c1cc(F)ccc1Oc1cncnc1N1CC2(CCN(C[C@@H]3CC[C@@H](NS(=O)(=O)N4CCC4)CO3)CC2)C1 [Compound 184, 2-((4-(7-(((2S,5R)-5-(Azetidine-1-sulfonamido)tetrahydro-2H-pyran-2-yl)methyl)-2,7-diazaspiro[3.5]nonan-2-yl)pyrimidin-5-yl)oxy)-N-(2-cyanoethyl)-5-fluoro-N-isopropylbenzamide]",< 1
12,"CCS(=O)(=O)N[C@@H]1CC[C@@H](CN2CCC3(CC2)CN(c2ncnnc2Oc2ccc(F)cc2C(=O)N(CC(F)F)C(C)C)C3)OC1 [Compound 185, N-(2,2-Difluoroethyl)-2-((5-(7-(((2S,5R)-5-(ethylsulfonamido)tetrahydro-2H-pyran-2-yl)methyl)-2,7-diazaspiro[3.5]nonan-2-yl)-1,2,4-triazin-6-yl)oxy)-5-fluoro-N-isopropylbenzamide]",< 1
13,"CC(C)N(CC(F)F)C(=O)c1cc(F)ccc1Oc1nncnc1N1CC2(CCN(C[C@@H]3CC[C@@H](NS(=O)(=O)C4CC4)CO3)CC2)C1 [Compound 186, 2-((5-(7-(((2S,5R)-5-(Cyclopropanesulfonamido)tetrahydro-2H-pyran-2-yl)methyl)-2,7-diazaspiro[3.5]nonan-2-yl)-1,2,4-triazin-6-yl)oxy)-N-(2,2-difluoroethyl)-5-fluoro-N-isopropylbenzamide]",< 1
14,"CC(C)N(CC(F)F)C(=O)c1cc(F)ccc1Oc1nncnc1N1CC2(CCN(C[C@@H]3CC[C@@H](NS(=O)(=O)c4cnn(C)c4)CO3)CC2)C1 [Compound 187, N-(2,2-Difluoroethyl)-5-fluoro-N-isopropyl-2-((5-(7-(((2S,5R)-5-((1-methyl-1H-pyrazole)-4-sulfonamido)tetrahydro-2H-pyran-2-yl)methyl)-2,7-diazaspiro[3.5]nonan-2-yl)-1,2,4-triazin-6-yl)oxy)benzamide]",< 1
15,"CCNS(=O)(=O)N[C@@H]1CC[C@@H](CN2CCC3(CC2)CN(c2ncnnc2Oc2ccc(F)cc2C(=O)N(CC(F)F)C(C)C)C3)OC1 [Compound 188, N-(2,2-Difluoroethyl)-2-((5-(7-(((2S,5R)-5-((N-ethylsulfamoyl)amino)tetrahydro-2H-pyran-2-yl)methyl)-2,7-diazaspiro[3.5]nonan-2-yl)-1,2,4-triazin-6-yl)oxy)-5-fluoro-N-isopropylbenzamide]",< 1

# Reference: US11919901B2 (Syndax Pharmaceuticals, Inc., priority 2021, dated 2024)
